Test results taken from patent US10253039B2, “Inhibitors of bacterial DNA gyrase with efficacy against gram-negative bacteria” (priority 2014, dated 2019).
In brackets after ≈: the same amount, converted by molar mass. Read-outs that look alike come from different tables or passages of the source.

Key:
Shigella flexneri = test: MIC, 20-strain panel; format: cell-based
In short: (§1)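 Inoculum 1:10000 (LB, log-phase subculture). Triplicate twofold dilutions plus DMSO column. 37° C., shaken, 16-18 h. Lowest non-turbid well = MIC. CLSI method.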

Streptococcus pyogenes = test: MIC, 20-strain panel; format: cell-based
In short: as §1

Bacillus cereus = test: MIC, 20-strain panel; format: cell-based; conditions: Table 7, separate set of experiments, read-out: MIC
In short: as §1

[1] = tested on: Staphylococcus epidermidis; test: MIC, 20-strain panel; format: cell-based
In short: as §1

E. coli MG1655 = test: MIC, 20-strain panel; format: cell-based; conditions: Escherichia coli, read-out: MIC
In short: as §1

[2] = tested on: Staphylococcus saprophyticus subsp. saprophyticus; test: MIC, 20-strain panel; format: cell-based
In short: as §1

Enterococcus faecalis = test: MIC, 20-strain panel; format: cell-based; conditions: Table 7, separate set of experiments
In short: as §1

[3] = tested on: Klebsiella pneumoniae subsp. pneumoniae; test: MIC, 20-strain panel; format: cell-based
In short: as §1

Enterococcus faecium = test: MIC, 20-strain panel; format: cell-based; conditions: Table 7, separate set of experiments, read-out: MIC
In short: as §1

Streptococcus agalactiae = test: MIC, 20-strain panel; format: cell-based
In short: as §1

[4] = tested on: Salmonella enterica subsp. enterica typhimurium; test: MIC, 20-strain panel; format: cell-based
In short: as §1

[5] = tested on: Morganella morganii subsp. morganii; test: MIC, 20-strain panel; format: cell-based
In short: as §1

Bacillus subtilis 168 = test: MIC, 20-strain panel; format: cell-based; conditions: Table 7, separate set of experiments, read-out: MIC
In short: as §1

[6] = tested on: Staphylococcus aureus subsp. aureus; test: MIC, 20-strain panel; format: cell-based; conditions: read-out: MIC
In short: as §1

E. coli JW5503 (deltolC) = test: MIC, 20-strain panel; format: cell-based; conditions: Escherichia coli
In short: as §1

Enterobacter aerogenes = test: MIC, microdilution in 96-well plates; format: cell-based; conditions: Klebsiella aerogenes
In short: as §1

Acinetobacter baumannii = test: MIC, microdilution in 96-well plates; format: cell-based
In short: as §1

Pseudomonas aeruginosa = test: MIC, microdilution in 96-well plates; format: cell-based
In short: as §1

E. coli BW25113 = test: MIC, microdilution in 96-well plates; format: cell-based; conditions: Escherichia coli, read-out: MIC
In short: as §1

Edwardsiella tarda = test: MIC, microdilution in 96-well plates; format: cell-based
In short: as §1

[7] = tested on: ciprofloxacin resistant strains of E. coli; test: MIC against ciprofloxacin resistant strains compared to parent strain; conditions: ratio to MIC of parent strain E. coli BW25113 ΔtolC
Method: (§2) A microdilution method in 96-well plates was used and the MIC protocol established by the Clinical Laboratory Standards Institute was followed. From a growing subculture, a 1:10000 inoculum of each strain in Luria-Bertani media was prepared and aliquoted 100 μL in 4 columns of wells, except for the top row wells, which contained 200 μL of inoculum. […] The liquid in each of wells was mixed with a multi-channel pipet and 100 μL was transferred to the next well and mixed. The 2-fold dilution was continued down the 96-well plate until 100 μL was left, which was discarded. The plates were incubated at 37° C. with shaking for 16-18 hours. The MIC was determined as the lowest concentration that inhibited growth and had no turbidity by visual inspection.

[8] = tested on: E. coli BW25113 ΔtolC cipR isolate GyrA Asp87Tyr; test: MIC against ciprofloxacin-resistant mutant; conditions: cipR isolate GyrA Asp87Tyr
Method: as §2

[9] = tested on: E. coli BW25113 ΔtolC cipR isolate GyrA Ser83Leu; test: MIC against ciprofloxacin-resistant mutant; conditions: cipR isolate GyrA Ser83Leu
Method: as §2

[10] = tested on: E. coli BW25113 ΔtolC cipR isolate GyrA Asp87Gly; test: MIC against ciprofloxacin-resistant mutant; conditions: cipR isolate GyrA Asp87Gly
Method: as §2

E. coli BW25113 ΔtolC = test: MIC, microdilution in 96-well plates; conditions: E. coli BW25113 ΔtolC (parent strain)
[11] = tested on: E. coli BW25113 ΔtolC cipR isolate GyrB Ser464Phe; test: MIC against ciprofloxacin-resistant mutant; conditions: cipR isolate GyrB Ser464Phe
Method: as §2

[12] = tested on: E. coli BW25113 ΔtolC gyrR isolate GyrA His45Tyr; test: MIC against gyramide-resistant mutant; conditions: gyrR isolate GyrA His45Tyr
Method: as §2

[13] = tested on: E. coli BW25113 ΔtolC gyrR isolate GyrB Thr508Met; test: MIC against gyramide-resistant mutant; conditions: gyrR isolate GyrB Thr508Met
Method: as §2

[14] = tested on: E. coli BW25113 ΔtolC gyrR isolate GyrA Phe96Leu; test: MIC against gyramide-resistant mutant; conditions: gyrR isolate GyrA Phe96Leu
Method: as §2

[15] = tested on: E. coli BW25113 ΔtolC gyrR isolate GyrA Pro35Thr; test: MIC against gyramide-resistant mutant; conditions: gyrR isolate GyrA Pro35Thr
Method: as §2

[16] = tested on: E. coli BW25113 ΔtolC gyrR isolate GyrA Ser97Pro; test: MIC against gyramide-resistant mutant; conditions: gyrR isolate GyrA Ser97Pro
Method: as §2

[17] = Table 7, separate set of experiments
[18] = Table 7, separate set of experiments, read-out: MIC
[19] = MG1655, E. coli MG1655, Table 7, separate set of experiments
[20] = F: Salmonella enterica subsp. enterica Typhimurium
[21] = Salmonella enterica subsp. enterica typhimurium, Table 7, separate set of experiments
[22] = H: Staphylococcus aureus subsp. aureus
[23] = E. coli JW5503 (deltolC), Table 7, separate set of experiments
[24] = BW25113, E. coli BW25113, Table 7, separate set of experiments
[25] = E: Klebsiella pneumoniae subsp. pneumoniae

## Cc1ccc(C#N)cc1S(=O)(=O)N[C@@H]1CCN(Cc2ccc(-c3ccccc3)cc2)C1 [Compound 143]
Shigella flexneri; G: Shigella flexneri
  MIC: 4 µg/mL (≈ 9.27 µM)
Shigella flexneri; [17]
  MIC: 4 µg/mL (≈ 9.27 µM)
Streptococcus pyogenes; L: Streptococcus pyogenes, read-out: MIC
  MIC: > 8 µg/mL
Streptococcus pyogenes; [18]
  MIC: > 16 µg/mL
Bacillus cereus
  MIC: > 16 µg/mL
[1]; J: Staphylococcus epidermidis, read-out: MIC
  MIC: ~8 µg/mL (≈ 18.5 µM)
[1]; [18]
  MIC: > 16 µg/mL
E. coli MG1655; MG1655, A: E. coli MG1655
  MIC: 8 µg/mL (≈ 18.5 µM)
E. coli MG1655; [19]
  MIC: 16 µg/mL (≈ 37.1 µM)
[2]; I: Staphylococcus saprophyticus subsp. saprophyticus, read-out: MIC
  MIC: > 8 µg/mL
[2]; Staphylococcus saprophyticus subsp. saprophyticus, Table 7, separate set of experiments, read-out: MIC
  MIC: > 16 µg/mL
Enterococcus faecalis
  MIC: > 16 µg/mL
[3]; E: Klebsiella pneumoniae subsp. pneumoniae, read-out: MIC
  MIC: > 8 µg/mL
[3]; Klebsiella pneumoniae subsp. pneumoniae, Table 7, separate set of experiments, read-out: MIC
  MIC: > 16 µg/mL
Enterococcus faecium
  MIC: > 16 µg/mL
Streptococcus agalactiae; K: Streptococcus agalactiae, read-out: MIC
  MIC: > 8 µg/mL
Streptococcus agalactiae; [18]
  MIC: > 16 µg/mL
[4]; [20]
  MIC: 1 µg/mL (≈ 2.32 µM)
[4]; [21]
  MIC: 2 µg/mL (≈ 4.63 µM)
[5]; Morganella morganii subsp. morganii, Table 7, separate set of experiments, read-out: MIC
  MIC: > 16 µg/mL
Bacillus subtilis 168
  MIC: > 16 µg/mL
[6]; [22]
  MIC: > 8 µg/mL
[6]; Staphylococcus aureus subsp. aureus, Table 7, separate set of experiments
  MIC: > 16 µg/mL
E. coli JW5503 (deltolC); C: E. coli JW5503 (deltolC)
  MIC: < 0.0625 µg/mL
E. coli JW5503 (deltolC); [23]
  MIC: < 0.0078 µg/mL
Enterobacter aerogenes; Enterobacter aerogenes, Table 7, separate set of experiments, read-out: MIC
  MIC: > 16 µg/mL
Acinetobacter baumannii; [18]
  MIC: > 16 µg/mL
Pseudomonas aeruginosa; [18]
  MIC: > 16 µg/mL
E. coli BW25113; BW25113, B: E. coli BW25113
  MIC: ~8 µg/mL (≈ 18.5 µM)
E. coli BW25113; [24]
  MIC: 8 µg/mL (≈ 18.5 µM)
Edwardsiella tarda; D: Edwardsiella tarda, read-out: MIC
  MIC: ~8 µg/mL (≈ 18.5 µM)
Edwardsiella tarda; [18]
  MIC: 8 µg/mL (≈ 18.5 µM)

## O=S(=O)(N[C@@H]1CCN(Cc2ccc(OC3CC3)cc2)C1)c1cccc(C(F)(F)F)c1 [Compound 156]
Shigella flexneri; G: Shigella flexneri
  MIC: 8 µg/mL (≈ 18.2 µM)
Shigella flexneri; [17]
  MIC: 8 µg/mL (≈ 18.2 µM)
Streptococcus pyogenes
  MIC: > 8 µg/mL
[1]
  MIC: > 8 µg/mL
E. coli MG1655; MG1655, A: E. coli MG1655
  MIC: ~8 µg/mL (≈ 18.2 µM)
E. coli MG1655; [19]
  MIC: 16 µg/mL (≈ 36.3 µM)
[2]
  MIC: > 8 µg/mL
[3]; [25]
  MIC: > 8 µg/mL
[3]; Klebsiella pneumoniae subsp. pneumoniae, Table 7, separate set of experiments
  MIC: > 16 µg/mL
Streptococcus agalactiae
  MIC: > 8 µg/mL
[4]; [20]
  MIC: 4 µg/mL (≈ 9.08 µM)
[4]; [21]
  MIC: 4 µg/mL (≈ 9.08 µM)
[5]; Morganella morganii
  MIC: > 16 µg/mL
[6]; [22]
  MIC: > 8 µg/mL
E. coli JW5503 (deltolC); C: E. coli JW5503 (deltolC)
  MIC: 0.125 µg/mL (≈ 0.284 µM)
E. coli JW5503 (deltolC); [23]
  MIC: 0.125 µg/mL (≈ 0.284 µM)
Enterobacter aerogenes
  MIC: > 16 µg/mL
Acinetobacter baumannii
  MIC: > 16 µg/mL
Pseudomonas aeruginosa
  MIC: > 16 µg/mL
E. coli BW25113; BW25113, B: E. coli BW25113
  MIC: ~8 µg/mL (≈ 18.2 µM)
E. coli BW25113; [24]
  MIC: 16 µg/mL (≈ 36.3 µM)
Edwardsiella tarda; D: Edwardsiella tarda
  MIC: ~8 µg/mL (≈ 18.2 µM)
Edwardsiella tarda; [17]
  MIC: 16 µg/mL (≈ 36.3 µM)

## Cc1ccc(F)cc1S(=O)(=O)NC1CCN(Cc2ccc(-c3ccccc3)cc2)C1 (stereo not shown) [Gyramide C]
[7]
  MIC against ciprofloxacin resistant strains compared to the parent strain: 1-4 times
[8]
  MIC: 5 µM (≈ 2.12 µg/mL)
[9]
  MIC: 2.5 µM (≈ 1.06 µg/mL)
[10]
  MIC: 5 µM (≈ 2.12 µg/mL)
E. coli BW25113 ΔtolC; Table 5
  MIC: 2.5 µM (≈ 1.06 µg/mL)
[11]
  MIC: 10 µM (≈ 4.25 µg/mL)

## Cc1ccc(F)cc1S(=O)(=O)NC1CCN(Cc2ccc(OC(C)C)cc2)C1 (stereo not shown) [Gyramide A]
[12]
  MIC: 320 µM (≈ 130 µg/mL)
[13]
  MIC: 320 µM (≈ 130 µg/mL)
E. coli BW25113 ΔtolC; Table 4
  MIC: 20 µM (≈ 8.13 µg/mL)
[14]
  MIC: 320 µM (≈ 130 µg/mL)
[15]
  MIC: 320 µM (≈ 130 µg/mL)
[16]
  MIC: 320 µM (≈ 130 µg/mL)

## COc1ccccc1-c1ccc(CN2CC[C@@H](NS(=O)(=O)c3cccc(C(F)(F)F)c3)C2)cc1 [Compound 66]
Shigella flexneri; G: Shigella flexneri
  MIC: > 8 µg/mL
Streptococcus pyogenes
  MIC: > 8 µg/mL
[1]
  MIC: 8 µg/mL (≈ 16.3 µM)
E. coli MG1655; MG1655, A: E. coli MG1655
  MIC: > 8 µg/mL
[2]
  MIC: > 8 µg/mL
[3]; [25]
  MIC: > 8 µg/mL
Streptococcus agalactiae
  MIC: > 8 µg/mL
[4]; [20]
  MIC: > 8 µg/mL
[6]; [22]
  MIC: > 8 µg/mL
E. coli JW5503 (deltolC); C: E. coli JW5503 (deltolC)
  MIC: 4 µg/mL (≈ 8.15 µM)
E. coli BW25113; BW25113, B: E. coli BW25113
  MIC: > 8 µg/mL
Edwardsiella tarda; D: Edwardsiella tarda
  MIC: > 8 µg/mL
